Consider five compounds from patent US20240335462A1, “SULFUR/PHOSPHORUS-CONTAINING ARYL COMPOUND AND APPLICATION THEREOF” (MEDSHINE DISCOVERY INC., priority 2021, published 2024).

Each structure is given as a SMILES string. Where two headings read alike, the source gives them in different places.

Data set [1] has as its system JAK1/3 signaling pathway (IL-2/pSTAT5). Briefly: IL-2-stimulated pSTAT5 in human PBMC (flow cytometry). It is filed as cell-based. The conditions noted are these: CD4-positive cells. On the procedure: (§1) The purpose of this experiment was to detect the inhibitory effect of the compounds on cytokine-activated JAK-STAT signaling pathways in human peripheral blood mononuclear cells (PBMC).
(§2) • a) PBMCs frozen in liquid nitrogen were thawed in a 37° C. water bath, and culture medium was added. The mixture was then centrifuged at 320 g for 3 minutes. • b) Cells were resuspended in culture medium, counted, and the cell concentration was adjusted to 5×10^5 cells/mL with culture medium. Subsequently, the cell suspension was inoculated into […] 96-well round-bottom plates, with 200 μL per well. The plates were incubated at 37° C. with 5% CO2 for 90 minutes. • c) Different concentrations of the test compound (starting at 2 μM, 5-fold serial dilution, a total of 8 concentrations) were added, followed by incubation at 37° C. with 5% CO2 for 30 minutes. • d) IL-6 (final concentration at 20 ng/mL) was added to the first round-bottom plate and incubated at 37° C. with 5% CO2 for 15 minutes. • e) IFNα (final concentration at 1000 U/mL) was added to the second round-bottom plate and incubated at 37° C. with 5% CO2 for 15 minutes. • f) IL-2 (final concentration at 4 ng/mL) was added to the third round-bottom plate and incubated at 37° C. with 5% CO2 for 15 minutes. • g) GM-CSF (final concentration at […]) was added to the fourth round-bottom plate and incubated at 37° C. with 5% CO2 for 15 minutes. • h) Cells were centrifuged at 320 g for 3 minutes, and each well was washed once with 200 μL of staining solution. • i) 50 μL of staining solution containing human CD33 antibody was added to each well of the GM-CSF-stimulated culture plate, and 50 μL of staining solution containing CD4 antibody was added to the remaining three culture plates. The staining was performed at 4° C. for 30 minutes. The cells were washed twice with the staining solution. • j) 100 μL of fixation buffer was added to each well, and the cells were fixed at 4° C. for 15 minutes. The cells were washed once with the staining solution. • k) 100 μL of permeabilization buffer was added to each well, and the cells were permeabilized at 4° C. for 20 minutes. The cells were washed twice with the staining solution. • l) 50 μL of staining solution containing human pSTAT1 antibody was added to each well of the IL-6 and IFN-α-stimulated culture plates, and 50 μL of staining solution containing human pSTAT5 antibody was added to each well of the IL-2 and GM-CSF-stimulated culture plates. The staining was performed at room temperature for 15 minutes. The cells were washed twice with the staining solution. • m) The cells were resuspended in 150 μL of staining solution. • n) The fluorescence intensity of pSTAT1 (stimulated by IL-6 and IFN-α) or pSTAT5 (stimulated by IL-2) in CD4-positive cells was detected using flow cytometer. The fluorescence intensity of pSTAT5 (stimulated by GM-CSF) in CD33-positive cells was also detected.
(§3) Data analysis was performed using Flowjo software to determine the IC50 of the compounds.
(In flow cytometry, cells or beads pass a laser one at a time.)

Data set [2] concerns JAK2/2 signaling pathway (GM-CSF/pSTAT5). The data set can be described thus: GM-CSF-stimulated pSTAT5 in human PBMC (flow cytometry). It is filed as cell-based. The conditions noted are these: CD33-positive cells. On the procedure: as §1, §2, §3
Data set [3] in a line: Pharmacokinetic testing in mice. It is filed as in vivo, male CD-1 mice. The conditions noted are these: mouse; for Vd: read-out: Apparent volume of distribution Vd; for AUC(0-t): read-out: Area under the curve AUC0-last; for half-life: read-out: Half-life T1/2 (converted); for C0: read-out: Starting concentration C0; for bioavailability: read-out: Bioavailability F %; for Cmax: read-out: Peak concentration Cmax; for Tmax: read-out: Time to peak concentration Tmax. On the procedure:
The objective was to study the pharmacokinetic behavior of the compound of the present disclosure in mice and evaluate the pharmacokinetic characteristics, using male CD-1 mice aged 7 to 9 weeks as test animals. The drug concentrations in plasma at different time points after a single intravenous injection (IV) and oral administration (PO) of the compound were determined using LC/MS/MS.
The pharmacokinetic characteristics of the compound in rodents following intravenous injection and oral administration were tested using a standard protocol. Test animals were fasted for 10 to 14 hours before administration and allowed to feed 4 hours post-administration. The compound was prepared into a clear solution with the appropriate solvent for both IV (intravenous injection) and PO (oral gavage) administration. The solvent was 10% DMSO+10% solutol+80% (10% HP-β-CD aqueous solution). Whole blood samples were collected within 24 hours, centrifuged at 6000 g for 3 minutes, and the supernatant was separated to obtain plasma samples. Protein precipitation was performed by adding four times the volume of acetonitrile solution containing internal standard to the plasma samples. After centrifugation, the supernatant was added with an equal volume of water and then centrifuged before being subjected to LC-MS/MS analysis for quantifying plasma drug concentration. Pharmacokinetic parameters such as peak concentration, time to peak concentration, clearance, half-life, area under the drug-time curve, and bioavailability were calculated.

Where [4] appears, read: male, CD-1, plasma, PO 10 mg/kg.

As a reminder, the IC50 is the midpoint of a concentration-inhibition curve. The low end stands for greater potency in that assay, the high end for weaker potency in that assay. For orientation: bioavailability means dose-corrected exposure relative to a reference, in per cent. `CNC(=O)c1cnc(NC(=O)C2CC2)cc1Nc1cccc(-c2ncc(S(=O)(=O)C(C)C)cn2)c1OC` [WX-019] displayed an IC50 in data set [1] of 1580 nM. Besides, in data set [2], the IC50 came out at 1440 nM. Moreover, in data set [3] (male, CD-1, plasma, IV 3 mg/kg), the Vd was 0.4 L/kg, the AUC(0-t) was found to be 21 µM·h, the half-life was 66 min and the C0 was 16.3 µM. Also, in data set [3] (setting [4]), the AUC(0-t) amounted to 61.2 µM·h, the bioavailability is 87%, the Cmax was 17.3 µM and the Tmax stood at 48 min. Besides, the “Apparent clearance Cl” value in data set [3] (IV 3 mg/kg) came out at 4.7 mL/kg/min.
For the compound `CNC(=O)c1cnc(NC(=O)C2CC2)cc1Nc1cccc(-c2ccc(S(=O)(=O)C(C)C)cn2)c1OC.Cl` [Hydrochloride of WX-020], the IC50 in data set [1] worked out at 1400 nM. This compound also had an IC50 in data set [2] of 1070 nM. In data set [3] (IV 3 mg/kg), the “Apparent clearance Cl” value was found to be 7.0 mL/kg/min, the “Apparent volume of distribution Vd” value is recorded as 1.1 L/kg, the “Area under the curve AUC0-last” value came out at 14.13 µM·h and the “Half-life T1/2” value is given as 2.3 h. Besides, the C0 in data set [3] (IV 3 mg/kg) came out at 8.04 µM. In data set [3] (PO 10 mg/kg), the “Area under the curve AUC0-last” value worked out at 56.784 µM·h, the “Bioavailability F %” value is reported as 121%, the “Time to peak concentration Tmax” value is 30 min and the Cmax came out at 15.5 µM.
`CNC(=O)c1nnc(NC(=O)C2CC2)cc1Nc1cccc(-c2ccc(P(=O)(C3CC3)C3CC3)cn2)c1OC` [WX-021] returned an IC50 in data set [1] of 540 nM. For the same compound, the IC50 in data set [2] worked out at 580 nM. In addition, in data set [3] (male, CD-1, plasma, IV 3 mg/kg), the Vd came to 0.9 L/kg, the AUC(0-t) is 11.9 µM·h, the half-life was 174 min and the C0 came to 9.89 µM. For the same compound, in data set [3] (setting [4]), the AUC(0-t) stood at 20.7 µM·h, the bioavailability is 52%, the Cmax was found to be 11.3 µM and the Tmax was 18 min. Moreover, in data set [3] (IV 3 mg/kg), the “Apparent clearance Cl” value amounted to 8.5 mL/kg/min.
For `CNC(=O)c1nnc(NC(=O)C2CC2)cc1Nc1cccc(-c2ncc(S(=N)(=O)C(C)C)cn2)c1OC` (single isomer, unassigned) [WX-011B], the IC50 in data set [1] came out at 773 nM; in data set [2], 1350 nM.
Turning to `CNC(=O)c1nnc(NC(=O)C2CC2)cc1Nc1cccc(-c2ncc(S(=N)(=O)C(C)C)cn2)c1OC` (single isomer, unassigned) [WX-011A], the IC50 in data set [1] turned out to be 1310 nM. Also, in data set [2], the IC50 was found to be 1660 nM. For the same compound, in data set [3] (IV 3 mg/kg), the “Apparent clearance Cl” value was found to be 14.1 mL/kg/min, the “Apparent volume of distribution Vd” value is 0.8 L/kg, the “Area under the curve AUC0-last” value is 6.908 µM·h and the “Half-life T1/2” value came to 4.2 h. In addition, the C0 in data set [3] (IV 3 mg/kg) amounted to 9.92 µM. Moreover, in data set [3] (PO 10 mg/kg), the “Area under the curve AUC0-last” value is 26.715 µM·h, the “Bioavailability F %” value was determined as 51%, the “Time to peak concentration Tmax” value is 18 min and the Cmax came out at 16.8 µM.
